Experimental data published in publication PMC11744769, “Modulation of the mechanism of action of antibacterial silver N-heterocyclic carbene complexes by variation of the halide ligand” (RSC Advances, 2025).

These compounds were tested against T1, thioredoxin reductase (TrxR) (Escherichia coli, UniProt P0A9P4) (assay: DTNB reduction kinetic assay with Trx and NADPH in lysates of treated E. coli DSM […] cells).
T1 construct: gene trxB
Assay type: cell-based

T1 sequence (P0A9P4 2-321): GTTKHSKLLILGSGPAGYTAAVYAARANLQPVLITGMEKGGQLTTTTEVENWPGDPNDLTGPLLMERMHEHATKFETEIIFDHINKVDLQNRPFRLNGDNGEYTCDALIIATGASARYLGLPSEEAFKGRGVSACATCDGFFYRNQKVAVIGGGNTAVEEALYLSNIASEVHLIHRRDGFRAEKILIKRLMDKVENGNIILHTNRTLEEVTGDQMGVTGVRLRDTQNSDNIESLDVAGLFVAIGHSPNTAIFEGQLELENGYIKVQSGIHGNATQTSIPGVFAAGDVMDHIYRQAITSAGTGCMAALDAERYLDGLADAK

Point of comparison: `CC(C)n1[c]([Ag-][Cl])[n+](Cc2ccccn2)c2ccccc21` [1-Cl], IC50 ~11 µM. Against it:
- CC(C)n1[c]([Ag-][I])[n+](Cc2ccccn2)c2ccccc21 [1-I] — 1.8-fold lower, ~6 µM
- COCCn1[c]([Ag-][Cl])[n+](Cc2ccccn2)c2ccccc21 [2-Cl] — the same, ~11 µM
- COCCn1[c]([Ag-][I])[n+](Cc2ccccn2)c2ccccc21 [2-I] — 1.8-fold lower, ~6 µM
